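Five compound concentrations were applied to cells in 96-well plates for 48 hours; endpoints were derived by simple linear interpolation of the resulting dose-response curve. At the TGI there is no net growth.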
Tests used:
Assay in all cases: DTP human tumour cell line panel, 48 h
786-0 renal = system: 786-0 renal
SN12C renal = system: SN12C renal
HL-60(TB) leukemia = system: HL-60(TB) leukemia
EKVX NSCLC = system: EKVX NSCLC
COLO 205 colon = system: COLO 205 colon
DMS 273 small cell lung = system: DMS 273 small cell lung
XF 498 CNS = system: XF 498 CNS
A549 NSCLC = system: A549 NSCLC
TK-10 renal = system: TK-10 renal
KM12 colon = system: KM12 colon
ACHN renal = system: ACHN renal
NCI-H460 lung = system: NCI-H460 lung
NCI-H226 lung = system: NCI-H226 lung
DMS 114 small cell lung = system: DMS 114 small cell lung
SF-295 CNS = system: SF-295 CNS
HOP-92 NSCLC = system: HOP-92 NSCLC
MALME-3M melanoma = system: MALME-3M melanoma
UACC-62 melanoma = system: UACC-62 melanoma
KM20L2 colon = system: KM20L2 colon
NCI-H23 lung = system: NCI-H23 lung
SK-OV-3 ovarian = system: SK-OV-3 ovarian
RPMI-8226 leukemia = system: RPMI-8226 leukemia
RXF 393 renal = system: RXF 393 renal
SNB-19 CNS = system: SNB-19 CNS
SK-MEL-5 melanoma = system: SK-MEL-5 melanoma
LOX IMVI melanoma = system: LOX IMVI melanoma
SF-539 CNS = system: SF-539 CNS
HCT-116 colon = system: HCT-116 colon
HCC-2998 colon = system: HCC-2998 colon
K-562 leukemia = system: K-562 leukemia
LXFL 529 NSCLC = system: LXFL 529 NSCLC
DLD-1 colon = system: DLD-1 colon
SNB-78 CNS = system: SNB-78 CNS
SF-268 CNS = system: SF-268 CNS
HOP-18 NSCLC = system: HOP-18 NSCLC
M19-MEL melanoma = system: M19-MEL melanoma
CCRF-CEM leukemia = system: CCRF-CEM leukemia
CAKI-1 renal = system: CAKI-1 renal
UO-31 renal = system: UO-31 renal
NCI-H522 lung = system: NCI-H522 lung
U251 CNS = system: U251 CNS
M14 melanoma = system: M14 melanoma
OVCAR-5 ovarian = system: OVCAR-5 ovarian
HT29 colon = system: HT29 colon
HCT-15 colon = system: HCT-15 colon
OVCAR-8 ovarian = system: OVCAR-8 ovarian
SK-MEL-2 melanoma = system: SK-MEL-2 melanoma
SK-MEL-28 melanoma = system: SK-MEL-28 melanoma
IGROV1 ovarian = system: IGROV1 ovarian
MOLT-4 leukemia = system: MOLT-4 leukemia
HOP-62 NSCLC = system: HOP-62 NSCLC
OVCAR-4 ovarian = system: OVCAR-4 ovarian
UACC-257 melanoma = system: UACC-257 melanoma
A498 renal = system: A498 renal
SW-620 colon = system: SW-620 colon
RXF-631 renal = system: RXF-631 renal
SR leukemia = system: SR leukemia
SNB-75 CNS = system: SNB-75 CNS
OVCAR-3 ovarian = system: OVCAR-3 ovarian

`O=C1NC(=S)NC(=O)C1=Cc1ccc([N+](=O)[O-])o1` showed a TGI (786-0 renal) of 36.5 µM, a TGI (SN12C renal) of 29.8 µM and a TGI (HL-60(TB) leukemia) of 87.6 µM. The TGI (EKVX NSCLC) was 42.8 µM, the TGI (COLO 205 colon) was 38.2 µM and the TGI (DMS 273 small cell lung) was 37.8 µM. The TGI (XF 498 CNS) was 52.3 µM, the TGI (A549 NSCLC) was greater than 100 µM and the TGI (TK-10 renal) was greater than 100 µM. For the same compound, the TGI (KM12 colon) was greater than 100 µM, the TGI (ACHN renal) was 34.6 µM and the TGI (NCI-H460 lung) was greater than 100 µM. For the same compound, the TGI (NCI-H226 lung) was greater than 100 µM, the TGI (DMS 114 small cell lung) was 34.6 µM and the TGI (SF-295 CNS) was greater than 100 µM. For the same compound, the TGI (HOP-92 NSCLC) was 36.3 µM, the TGI (MALME-3M melanoma) was 28.4 µM and the TGI (UACC-62 melanoma) was 39.1 µM. For the same compound, the TGI (KM20L2 colon) was 43.1 µM, the TGI (NCI-H23 lung) was 31.9 µM and the TGI (SK-OV-3 ovarian) was greater than 100 µM. It also gave a TGI (RPMI-8226 leukemia) of 54 µM, a TGI (RXF 393 renal) of 38.3 µM and a TGI (SNB-19 CNS) greater than 100 µM. For the same compound, the TGI (SK-MEL-5 melanoma) was 44.5 µM, the TGI (LOX IMVI melanoma) was 38.7 µM and the TGI (SF-539 CNS) was 61.1 µM. For the same compound, the TGI (HCT-116 colon) was 34 µM, the TGI (HCC-2998 colon) was greater than 100 µM and the TGI (K-562 leukemia) was 86.7 µM. The TGI (LXFL 529 NSCLC) was 30.5 µM, the TGI (DLD-1 colon) was 39 µM and the TGI (SNB-78 CNS) was 49.3 µM. The TGI (SF-268 CNS) was greater than 100 µM, the TGI (HOP-18 NSCLC) was 35.3 µM and the TGI (M19-MEL melanoma) was 36.8 µM. For the same compound, the TGI (CCRF-CEM leukemia) was 73.6 µM, the TGI (CAKI-1 renal) was 37 µM and the TGI (UO-31 renal) was greater than 100 µM. The TGI (NCI-H522 lung) was 35.1 µM, the TGI (U251 CNS) was greater than 100 µM and the TGI (M14 melanoma) was 29.5 µM. It also gave a TGI (OVCAR-5 ovarian) of 34.6 µM, a TGI (HT29 colon) of 48.7 µM and a TGI (HCT-15 colon) of 32.6 µM. It also gave a TGI (OVCAR-8 ovarian) of 66.9 µM, a TGI (SK-MEL-2 melanoma) greater than 100 µM and a TGI (SK-MEL-28 melanoma) of 47.7 µM. For the same compound, the TGI (IGROV1 ovarian) was 60.1 µM, the TGI (MOLT-4 leukemia) was 43.4 µM and the TGI (HOP-62 NSCLC) was greater than 100 µM. The TGI (OVCAR-4 ovarian) was 31.1 µM, the TGI (UACC-257 melanoma) was greater than 100 µM and the TGI (A498 renal) was greater than 100 µM. For the same compound, the TGI (SW-620 colon) was 41.6 µM, the TGI (RXF-631 renal) was 33.5 µM and the TGI (SR leukemia) was 43.9 µM. The TGI (SNB-75 CNS) was 31.6 µM.

With `COc1ccc(N=Nc2c(-c3ccccc3)nn(C(=O)CC(=O)Nc3ccc(OC)cc3)c2-c2ccccc2)cc1` the TGI (786-0 renal) was greater than 100 µM, the TGI (SN12C renal) was greater than 100 µM and the TGI (HL-60(TB) leukemia) was greater than 100 µM. For the same compound, the TGI (EKVX NSCLC) was greater than 100 µM, the TGI (COLO 205 colon) was greater than 100 µM and the TGI (DMS 273 small cell lung) was greater than 100 µM. The TGI (XF 498 CNS) was 76.1 µM, the TGI (A549 NSCLC) was greater than 100 µM and the TGI (TK-10 renal) was greater than 100 µM. The TGI (KM12 colon) was greater than 100 µM, the TGI (ACHN renal) was greater than 100 µM and the TGI (NCI-H460 lung) was greater than 100 µM. For the same compound, the TGI (NCI-H226 lung) was greater than 100 µM, the TGI (DMS 114 small cell lung) was greater than 100 µM and the TGI (SF-295 CNS) was greater than 100 µM. It also gave a TGI (HOP-92 NSCLC) of 50 µM, a TGI (MALME-3M melanoma) greater than 100 µM and a TGI (UACC-62 melanoma) greater than 100 µM. For the same compound, the TGI (NCI-H23 lung) was greater than 100 µM, the TGI (SK-OV-3 ovarian) was greater than 100 µM and the TGI (RPMI-8226 leukemia) was greater than 100 µM. It also gave a TGI (SNB-19 CNS) greater than 100 µM, a TGI (SK-MEL-5 melanoma) greater than 100 µM and a TGI (LOX IMVI melanoma) greater than 100 µM. It also gave a TGI (SF-539 CNS) of 59 µM, a TGI (HCT-116 colon) greater than 100 µM and a TGI (HCC-2998 colon) greater than 100 µM. The TGI (K-562 leukemia) was greater than 100 µM, the TGI (LXFL 529 NSCLC) was greater than 100 µM and the TGI (DLD-1 colon) was greater than 100 µM. The TGI (SNB-78 CNS) was greater than 100 µM, the TGI (SF-268 CNS) was greater than 100 µM and the TGI (HOP-18 NSCLC) was greater than 100 µM. For the same compound, the TGI (M19-MEL melanoma) was greater than 100 µM, the TGI (CCRF-CEM leukemia) was 53.1 µM and the TGI (CAKI-1 renal) was greater than 100 µM. It also gave a TGI (UO-31 renal) greater than 100 µM, a TGI (NCI-H522 lung) greater than 100 µM and a TGI (U251 CNS) greater than 100 µM. The TGI (OVCAR-5 ovarian) was greater than 100 µM, the TGI (HT29 colon) was greater than 100 µM and the TGI (HCT-15 colon) was greater than 100 µM. The TGI (OVCAR-8 ovarian) was greater than 100 µM, the TGI (SK-MEL-2 melanoma) was greater than 100 µM and the TGI (OVCAR-3 ovarian) was greater than 100 µM. The TGI (SK-MEL-28 melanoma) was greater than 100 µM, the TGI (IGROV1 ovarian) was greater than 100 µM and the TGI (MOLT-4 leukemia) was greater than 100 µM. For the same compound, the TGI (HOP-62 NSCLC) was greater than 100 µM, the TGI (OVCAR-4 ovarian) was greater than 100 µM and the TGI (UACC-257 melanoma) was greater than 100 µM. The TGI (A498 renal) was greater than 100 µM, the TGI (SW-620 colon) was greater than 100 µM and the TGI (RXF-631 renal) was greater than 100 µM. The TGI (SNB-75 CNS) was 37.9 µM.

From PubChem BioAssay (NCI)
